Target: T1, human NK3 receptor (Homo sapiens, UniProt P29371)
T1 construct: expressed in transfected cells; host or cells: HEK293 cells (transient expression), membrane preparation
T1 sequence (P29371 1-465): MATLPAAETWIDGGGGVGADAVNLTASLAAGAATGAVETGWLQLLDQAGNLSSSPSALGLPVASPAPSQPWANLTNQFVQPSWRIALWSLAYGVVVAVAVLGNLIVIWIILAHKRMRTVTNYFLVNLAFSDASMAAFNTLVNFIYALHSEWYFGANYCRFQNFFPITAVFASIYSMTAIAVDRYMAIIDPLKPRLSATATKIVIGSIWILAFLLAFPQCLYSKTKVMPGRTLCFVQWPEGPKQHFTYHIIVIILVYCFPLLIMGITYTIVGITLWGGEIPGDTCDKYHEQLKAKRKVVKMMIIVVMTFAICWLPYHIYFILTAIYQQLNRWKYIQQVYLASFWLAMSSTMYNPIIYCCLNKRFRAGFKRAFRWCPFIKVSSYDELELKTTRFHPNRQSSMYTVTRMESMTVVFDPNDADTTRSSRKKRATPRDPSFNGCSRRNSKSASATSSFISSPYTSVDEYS
Assay: [3H]SR142801 competition binding assay
Details: hNK3 receptor binding, [3H]SR142801, membranes from HEK293 cells transiently expressing recombinant human NK3 receptor
Protocol: [^3H]SR142801 Competition Binding Assay
hNK3 receptor binding experiment were performed using [^3H]SR142801 (Catalog No. TRK1035, specific activity: 74.0 Ci/mmol, Amersham, GE Healthcare UK limited, Buckinghamshire, UK) and membrane isolated from HEK293 cells transiently expressing recombinant human NK3 receptor. After thawing, the membrane homogenates were centrifuged at 48,000×g for 10 min at 4° C., the pellets were resuspended in the 50 mM Tris-HCl, 4 mM MnCl2, 1 μM phosphoramidon, 0.1% BSA binding buffer at pH 7.4 to a final assay concentration of 5 μg protein/well. For inhibition experiments, membranes were incubated with [^3H]SR142801 at a concentration equal to KD value of radioligand and 10 concentrations of the inhibitory compound (0.0003-10 μM) (in a total reaction volume of 500 μl) for 75 min at room temperature (RT). At the end of the incubation, membranes were filtered onto unitfilter (96-well white microplate with bonded GF/C filter preincubated 1 h in 0.3% PEI+0.3% BSA, Packard BioScience, Meriden, Conn.) with a Filtermate 196 harvester (Packard BioScience) and washed 4 times with ice-cold 50 mM Tris-HCl, pH 7.4 buffer. Nonspecific binding was measured in the presence of 10 μM SB222200 for both radioligands. The radioactivity on the filter was counted (5 min) on a Packard Top-count microplate scintillation counter with quenching correction after addition of 45 μl of microscint 40 (Canberra Packard S. A., Zürich, Switzerland) and shaking for 1 h. Inhibition curves were fitted according to the Hill equation: y=100/(1+(x/IC50)^nH), where nH=slope factor using Excel-fit 4 software (Microsoft). IC50 values were derived from the inhibition curve and the affinity constant (Ki) values were calculated using the Cheng-Prussoff equation Ki=IC50/(1+[L]/KD) where [L] is the concentration of radioligand and KD is its dissociation constant at the receptor, derived from the saturation isotherm. All experiments were performed in duplicate and the mean±standard error (SEM) of the individual Ki values was calculated.

| SMILES | Ki |
| --- | --- |
| CN(Cc1ccc(C(F)(F)F)c(F)c1)[C@H]1CN(C(=O)N2CCN(c3ccccn3)CC2)C[C@@H]1c1ccc(Cl)c(Cl)c1 (racemic) [Example 65, {(3SR,4RS)-3-(3,4-Dichloro-phenyl)-4-[(3-fluoro-4-trifluoromethyl-benzyl)-methyl-amino]-pyrrolidin-1-yl}-(4-pyridin-2-yl-piperazin-1-yl)-methanone] | 4.1 nM |
| CN1CCN(CCCCC(=O)N2C[C@H](c3ccc(Cl)c(Cl)c3)[C@@H](N(C)Cc3ccc(C(F)(F)F)c(F)c3)C2)CC1 (racemic) [Example 89, 1-{(3SR,4RS)-3-(3,4-Dichloro-phenyl)-4-[(3-fluoro-4-trifluoromethyl-benzyl)-methyl-amino]-pyrrolidin-1-yl}-5-(4-methyl-piperazin-1-yl)-pentan-1-one] | 26.9 nM |
| COCCCCC(=O)N1C[C@H](c2ccc(Cl)c(Cl)c2)[C@@H](N(C)Cc2ccc(C(F)(F)F)c(F)c2)C1 [Example 99, 1-{(3S,4R)-3-(3,4-Dichloro-phenyl)-4-[(3-fluoro-4-trifluoromethyl-benzyl)-methyl-amino]-pyrrolidin-1-yl}-5-methoxy-pentan-1-one] | 36.6 nM |
| CN(C)CCCNCC(=O)N1C[C@H](c2ccc(Cl)c(Cl)c2)[C@@H](N(C)Cc2ccc(C(F)(F)F)c(F)c2)C1 (racemic) [Example 125, 1-{(3SR,4RS)-3-(3,4-Dichloro-phenyl)-4-[(3-fluoro-4-trifluoromethyl-benzyl)-methyl-amino]-pyrrolidin-1-yl}-2-(3-dimethylamino-propylamino)-ethanone] | 76.8 nM |
| Cc1cc(CN(C)[C@H]2CN(C(=O)N3CCN(S(C)(=O)=O)CC3)C[C@@H]2c2ccc(Cl)c(Cl)c2)ccc1F (racemic) [Example 43, {(3SR,4RS)-3-(3,4-Dichloro-phenyl)-4-[(4-fluoro-3-methyl-benzyl)-methyl-amino]-pyrrolidin-1-yl}-(4-methanesulfonyl-piperazin-1-yl)-methanone] | 84.9 nM |
| CN(Cc1ccc(C(F)(F)F)c(F)c1)[C@H]1CN(C(=O)N2CCN(c3ccncc3)CC2)C[C@@H]1c1ccc(Cl)c(Cl)c1 (racemic) [Example 68, {(3SR,4RS)-3-(3,4-Dichloro-phenyl)-4-[(3-fluoro-4-trifluoromethyl-benzyl)-methyl-amino]-pyrrolidin-1-yl}-(4-pyridin-4-yl-piperazin-1-yl)-methanone] | 5.9 nM |
| CC(=O)NC1CCN(CC(=O)N2C[C@H](c3ccc(Cl)c(Cl)c3)[C@@H](N(C)Cc3ccc(C(F)(F)F)c(F)c3)C2)CC1 (racemic) [Example 137, N-[1-(2-{(3SR,4RS)-3-(3,4-Dichloro-phenyl)-4-[(3-fluoro-4-trifluoromethyl-benzyl)-methyl-amino]-pyrrolidin-1-yl}-2-oxo-ethyl)-piperidin-4-yl]-acetamide] | 8.7 nM |
| CC1CN(CC(=O)N2C[C@H](c3ccc(Cl)c(Cl)c3)[C@@H](N(C)Cc3ccc(C(F)(F)F)c(F)c3)C2)CC(C)O1 (mixture of isomers) [Example 142, 1-{(3SR,4RS)-3-(3,4-Dichloro-phenyl)-4-[(3-fluoro-4-trifluoromethyl-benzyl)-methyl-amino]-pyrrolidin-1-yl}-2-(2,6-dimethyl-morpholin-4-yl)-ethanone] | 19.7 nM |
| CN(Cc1ccc(C(F)(F)F)c(F)c1)[C@H]1CN(C(=O)CCCCC(N)=O)C[C@@H]1c1ccc(Cl)c(Cl)c1 (racemic) [Example 98, 6-{(3SR,4RS)-3-(3,4-Dichloro-phenyl)-4-[(3-fluoro-4-trifluoromethyl-benzyl)-methyl-amino]-pyrrolidin-1-yl}-6-oxo-hexanoic acid amide] | 52.7 nM |
| C[C@H]1CN(CC(=O)N2C[C@H](c3ccc(Cl)c(Cl)c3)[C@@H](N(C)Cc3ccc(C(F)(F)F)c(F)c3)C2)CCN1 (mixture of isomers) [Example 140, 1-{(3SR,4RS)-3-(3,4-Dichloro-phenyl)-4-[(3-fluoro-4-trifluoromethyl-benzyl)-methyl-amino]-pyrrolidin-1-yl}-2-((S)-3-methyl-piperazin-1-yl)-ethanone] | 47.9 nM |
| CN(Cc1ccc(C(F)(F)F)c(F)c1)[C@H]1CN(C(=O)N2CCC(O)(c3ccncc3)CC2)C[C@@H]1c1ccc(Cl)c(Cl)c1 (racemic) [Example 80, {(3SR,4RS)-3-(3,4-Dichloro-phenyl)-4-[(3-fluoro-4-trifluoromethyl-benzyl)-methyl-amino]-pyrrolidin-1-yl}-(4-hydroxy-3,4,5,6-tetrahydro-2H-[4,4′]bipyridinyl-1-yl)-methanone] | 20.8 nM |
| CN(Cc1ccc(C(F)(F)F)c(F)c1)[C@H]1CN(C(=O)N2CCN(c3ncccn3)CC2)C[C@@H]1c1ccc(Cl)c(Cl)c1 (racemic) [Example 63, {(3SR,4RS)-3-(3,4-Dichloro-phenyl)-4-[(3-fluoro-4-trifluoromethyl-benzyl)-methyl-amino]-pyrrolidin-1-yl}-(4-pyrimidin-2-yl-piperazin-1-yl)-methanone] | 8.6 nM |
| CC(=O)NC1CCN(CCCCC(=O)N2C[C@H](c3ccc(Cl)c(Cl)c3)[C@@H](N(C)Cc3ccc(C(F)(F)F)c(F)c3)C2)CC1 (racemic) [Example 105, N-[1-(5-{(3SR,4RS)-3-(3,4-Dichloro-phenyl)-4-[(3-fluoro-4-trifluoromethyl-benzyl)-methyl-amino]-pyrrolidin-1-yl}-5-oxo-pentyl)-piperidin-4-yl]-acetamide] | 62.2 nM |
| CN(Cc1ccc(F)c(F)c1)[C@H]1CN(C(=O)N2CCN(S(C)(=O)=O)CC2)C[C@@H]1c1ccc(Cl)c(Cl)c1 (racemic) [Example 36, {(3SR,4RS)-3-(3,4-Dichloro-phenyl)-4-[(3,4-difluoro-benzyl)-methyl-amino]-pyrrolidin-1-yl}-(4-methanesulfonyl-piperazin-1-yl)-methanone] | 52.6 nM |
| CN(Cc1ccc(C(F)(F)F)c(F)c1)[C@H]1CN(C(=O)CCCCC(=O)c2ccccn2)C[C@@H]1c1ccc(Cl)c(Cl)c1 (racemic) [Example 95, 1-{(3SR,4RS)-3-(3,4-Dichloro-phenyl)-4-[(3-fluoro-4-trifluoromethyl-benzyl)-methyl-amino]-pyrrolidin-1-yl}-6-pyridin-2-yl-hexane-1,6-dione] | 24.3 nM |
| CN(Cc1ccc(C(F)(F)F)c(F)c1)[C@H]1CN(C(=O)CCCCN2CCCC2)C[C@@H]1c1ccc(Cl)c(Cl)c1 (racemic) [Example 92, 1-{(3SR,4RS)-3-(3,4-Dichloro-phenyl)-4-[(3-fluoro-4-trifluoromethyl-benzyl)-methyl-amino]-pyrrolidin-1-yl}-5-pyrrolidin-1-yl-pentan-1-one] | 46.6 nM |
| CN(Cc1ccc(C(F)(F)F)c(F)c1)[C@H]1CN(C(=O)CCCCN2CCOCC2)C[C@@H]1c1cccc(Cl)c1 (racemic) [Example 107, 1-{(3SR,4RS)-3-(3-Chloro-phenyl)-4-[(3-fluoro-4-trifluoromethyl-benzyl)-methyl-amino]-pyrrolidin-1-yl}-5-morpholin-4-yl-pentan-1-one] | 81.2 nM |
| CC(=O)N(C)C1CCN(CC(=O)N2C[C@H](c3ccc(Cl)c(Cl)c3)[C@@H](N(C)Cc3ccc(C(F)(F)F)c(F)c3)C2)CC1 (racemic) [Example 147, N-[1-(2-{(3SR,4RS)-3-(3,4-Dichloro-phenyl)-4-[(3-fluoro-4-trifluoromethyl-benzyl)-methyl-amino]-pyrrolidin-1-yl}-2-oxo-ethyl)-piperidin-4-yl]-N-methyl-acetamide] | 13.8 nM |
